Source: the NIST ThermoML archive (doi:10.1016/j.jct.2017.06.002)
Numbers after ± are expanded uncertainties.

Assay: xn = mol fraction of the nth substance listed
Details: 100 kPa, Liquid; for viscosity: Concentric cylinders viscometry; for mass density: Vibrating tube method

## COCOCOCOCOC [2,4,6,8,10-pentaoxaundecane] + COCOCOCOC
288.15 K, x2 = 0
  viscosity: 2.207 ± 0.051 mPa·s
  mass density: 1078.8 ± 2 kg/m3
288.15 K, x2 = 0.12
  viscosity: 2.085 ± 0.055 mPa·s
  mass density: 1074.7 ± 2.1 kg/m3
288.15 K, x2 = 0.24
  viscosity: 1.982 ± 0.054 mPa·s
  mass density: 1070.3 ± 2.1 kg/m3
288.15 K, x2 = 0.35
  viscosity: 1.899 ± 0.053 mPa·s
  mass density: 1065.8 ± 2.2 kg/m3
288.15 K, x2 = 0.45
  viscosity: 1.83 ± 0.053 mPa·s
  mass density: 1061.1 ± 2.2 kg/m3
288.15 K, x2 = 0.55
  viscosity: 1.769 ± 0.052 mPa·s
  mass density: 1056.3 ± 2.2 kg/m3
288.15 K, x2 = 0.65
  viscosity: 1.707 ± 0.053 mPa·s
  mass density: 1051.8 ± 2.2 kg/m3
288.15 K, x2 = 0.74
  viscosity: 1.642 ± 0.054 mPa·s
  mass density: 1047.6 ± 2.2 kg/m3
288.15 K, x2 = 0.83
  viscosity: 1.553 ± 0.055 mPa·s
  mass density: 1043.9 ± 2.2 kg/m3
288.15 K, x2 = 0.92
  viscosity: 1.442 ± 0.061 mPa·s
  mass density: 1039.9 ± 2.1 kg/m3
288.15 K, x2 = 0.86
  mass density: 1042.2 ± 2.2 kg/m3
288.15 K, x2 = 0.96
  mass density: 1039.1 ± 2.1 kg/m3
293.15 K, x2 = 0
  viscosity: 2.015 ± 0.051 mPa·s
  mass density: 1073.3 ± 2 kg/m3
293.15 K, x2 = 0.12
  viscosity: 1.895 ± 0.054 mPa·s
  mass density: 1069.2 ± 2.1 kg/m3
293.15 K, x2 = 0.24
  viscosity: 1.798 ± 0.053 mPa·s
  mass density: 1065.1 ± 2.1 kg/m3
293.15 K, x2 = 0.35
  viscosity: 1.724 ± 0.053 mPa·s
  mass density: 1061 ± 2.2 kg/m3
293.15 K, x2 = 0.45
  viscosity: 1.663 ± 0.052 mPa·s
  mass density: 1056.7 ± 2.2 kg/m3
293.15 K, x2 = 0.55
  viscosity: 1.606 ± 0.052 mPa·s
  mass density: 1052.2 ± 2.2 kg/m3
293.15 K, x2 = 0.65
  viscosity: 1.556 ± 0.052 mPa·s
  mass density: 1047.5 ± 2.2 kg/m3
293.15 K, x2 = 0.74
  viscosity: 1.494 ± 0.053 mPa·s
  mass density: 1043.1 ± 2.2 kg/m3
293.15 K, x2 = 0.83
  viscosity: 1.412 ± 0.055 mPa·s
  mass density: 1038.9 ± 2.2 kg/m3
293.15 K, x2 = 0.92
  viscosity: 1.311 ± 0.058 mPa·s
  mass density: 1034.6 ± 2.2 kg/m3
293.15 K, x2 = 0.86
  mass density: 1036.6 ± 2.2 kg/m3
293.15 K, x2 = 0.96
  mass density: 1032.4 ± 2.3 kg/m3
298.15 K, x2 = 0
  viscosity: 1.848 ± 0.051 mPa·s
  mass density: 1068.2 ± 2 kg/m3
298.15 K, x2 = 0.12
  viscosity: 1.729 ± 0.054 mPa·s
  mass density: 1064.2 ± 2.1 kg/m3
298.15 K, x2 = 0.24
  viscosity: 1.639 ± 0.053 mPa·s
  mass density: 1060 ± 2.1 kg/m3
298.15 K, x2 = 0.35
  viscosity: 1.574 ± 0.052 mPa·s
  mass density: 1055.5 ± 2.2 kg/m3
298.15 K, x2 = 0.45
  viscosity: 1.523 ± 0.052 mPa·s
  mass density: 1051.3 ± 2.2 kg/m3
298.15 K, x2 = 0.55
  viscosity: 1.472 ± 0.052 mPa·s
  mass density: 1047.1 ± 2.2 kg/m3
298.15 K, x2 = 0.65
  viscosity: 1.429 ± 0.052 mPa·s
  mass density: 1043.1 ± 2.2 kg/m3
298.15 K, x2 = 0.74
  viscosity: 1.374 ± 0.053 mPa·s
  mass density: 1038.5 ± 2.2 kg/m3
298.15 K, x2 = 0.83
  viscosity: 1.3 ± 0.054 mPa·s
  mass density: 1034.1 ± 2.3 kg/m3
298.15 K, x2 = 0.92
  viscosity: 1.21 ± 0.056 mPa·s
  mass density: 1029.3 ± 2.2 kg/m3
298.15 K, x2 = 0.86
  mass density: 1031.3 ± 2.2 kg/m3
298.15 K, x2 = 0.96
  mass density: 1026.3 ± 2.5 kg/m3
303.15 K, x2 = 0
  viscosity: 1.703 ± 0.051 mPa·s
  mass density: 1063.4 ± 2 kg/m3
303.15 K, x2 = 0.12
  viscosity: 1.582 ± 0.054 mPa·s
  mass density: 1059.7 ± 2.1 kg/m3
303.15 K, x2 = 0.24
  viscosity: 1.496 ± 0.052 mPa·s
  mass density: 1055.1 ± 2.2 kg/m3
303.15 K, x2 = 0.35
  viscosity: 1.437 ± 0.052 mPa·s
  mass density: 1050.5 ± 2.2 kg/m3
303.15 K, x2 = 0.45
  viscosity: 1.394 ± 0.051 mPa·s
  mass density: 1046.1 ± 2.2 kg/m3
303.15 K, x2 = 0.55
  viscosity: 1.354 ± 0.051 mPa·s
  mass density: 1041.8 ± 2.2 kg/m3
303.15 K, x2 = 0.65
  viscosity: 1.319 ± 0.051 mPa·s
  mass density: 1038 ± 2.2 kg/m3
303.15 K, x2 = 0.74
  viscosity: 1.273 ± 0.052 mPa·s
  mass density: 1033.9 ± 2.2 kg/m3
303.15 K, x2 = 0.83
  viscosity: 1.217 ± 0.053 mPa·s
  mass density: 1029.5 ± 2.3 kg/m3
303.15 K, x2 = 0.92
  viscosity: 1.139 ± 0.055 mPa·s
  mass density: 1024.2 ± 2.3 kg/m3
303.15 K, x2 = 0.86
  mass density: 1026.8 ± 2.3 kg/m3
303.15 K, x2 = 0.96
  mass density: 1020.7 ± 2.8 kg/m3
308.15 K, x2 = 0
  viscosity: 1.576 ± 0.051 mPa·s
  mass density: 1059.1 ± 2 kg/m3
308.15 K, x2 = 0.12
  viscosity: 1.448 ± 0.054 mPa·s
  mass density: 1055.5 ± 2.1 kg/m3
308.15 K, x2 = 0.24
  viscosity: 1.366 ± 0.052 mPa·s
  mass density: 1050.8 ± 2.2 kg/m3
308.15 K, x2 = 0.35
  viscosity: 1.313 ± 0.051 mPa·s
  mass density: 1046.2 ± 2.2 kg/m3
308.15 K, x2 = 0.45
  viscosity: 1.28 ± 0.051 mPa·s
  mass density: 1041.8 ± 2.2 kg/m3
308.15 K, x2 = 0.55
  viscosity: 1.248 ± 0.051 mPa·s
  mass density: 1037.5 ± 2.2 kg/m3
308.15 K, x2 = 0.65
  viscosity: 1.23 ± 0.051 mPa·s
  mass density: 1033.7 ± 2.2 kg/m3
308.15 K, x2 = 0.74
  viscosity: 1.192 ± 0.051 mPa·s
  mass density: 1029.8 ± 2.2 kg/m3
308.15 K, x2 = 0.83
  viscosity: 1.149 ± 0.052 mPa·s
  mass density: 1025.5 ± 2.3 kg/m3
308.15 K, x2 = 0.92
  viscosity: 1.087 ± 0.054 mPa·s
  mass density: 1019.8 ± 2.4 kg/m3
308.15 K, x2 = 0.86
  mass density: 1022.6 ± 2.3 kg/m3
308.15 K, x2 = 0.96
  mass density: 1015.6 ± 3 kg/m3
313.15 K, x2 = 0
  viscosity: 1.464 ± 0.051 mPa·s
  mass density: 1055.2 ± 2 kg/m3
313.15 K, x2 = 0.12
  viscosity: 1.331 ± 0.054 mPa·s
  mass density: 1051.7 ± 2.1 kg/m3
313.15 K, x2 = 0.24
  viscosity: 1.252 ± 0.052 mPa·s
  mass density: 1047.2 ± 2.1 kg/m3
313.15 K, x2 = 0.35
  viscosity: 1.207 ± 0.051 mPa·s
  mass density: 1042.8 ± 2.2 kg/m3
313.15 K, x2 = 0.45
  viscosity: 1.18 ± 0.051 mPa·s
  mass density: 1038.2 ± 2.2 kg/m3
313.15 K, x2 = 0.55
  viscosity: 1.155 ± 0.051 mPa·s
  mass density: 1034.2 ± 2.2 kg/m3
313.15 K, x2 = 0.65
  viscosity: 1.143 ± 0.051 mPa·s
  mass density: 1030.3 ± 2.2 kg/m3
313.15 K, x2 = 0.74
  viscosity: 1.121 ± 0.051 mPa·s
  mass density: 1026.4 ± 2.2 kg/m3
313.15 K, x2 = 0.83
  viscosity: 1.092 ± 0.051 mPa·s
  mass density: 1022.1 ± 2.3 kg/m3
313.15 K, x2 = 0.92
  viscosity: 1.044 ± 0.053 mPa·s
  mass density: 1016.2 ± 2.5 kg/m3
313.15 K, x2 = 0.86
  mass density: 1018.9 ± 2.4 kg/m3
313.15 K, x2 = 0.96
  mass density: 1011.6 ± 3.4 kg/m3
